“Also recorded” adds a separate entry of the source.

Data set [1] relates to ARPE-19 cells. The experiment in a line: in vitro. It is filed as cell-based, human. To be noted: then 500 μM HQ for 16 hours. As for the experimental part:
ARPE-19 cells were grown in DMEM:F-12 supplemented with 10% fetal bovine serum (FBS). For all experiments these cells were split and grown in 6-well plates using MEM-Nic supplemented with 1% FBS according to a previously published procedure.^33 Cells used for all the experiments were between passages 25-30. For all experiments, the 96 well plates and 8-well slides were coated with 0.039 mg/mL collagen I at 6 μg/cm^2. The cells were seeded at a cell density of 70,000 cells/well and 150,000 cells/well using MEM-Nic media for 96 well plates and 8 well slides, respectively. Once the cells are confluent, media was replaced with MEM a, GlutaMAX™, supplemented with 1% FBS for 24 hours before carrying out assay protocols. Exposure to NAC alkyl-ester prodrugs were carried out in MEM a, GlutaMAX™, supplemented with 1% FBS and treatment with HQ was carried out in serum free DMEM:F-12.
ARPE-19 Cell viability assays were carried out using XTT/PMS reagent mixtures according to standard procedures known in the art (see Celis, J. E.; Carter, N., Cell Biology: A Laboratory Handbook. Elsevier Science: 2005). Corresponding absorbance readings were obtained using a plate reader at 450 and 660 nm.
A dose dependent study was first carried out for ARPE-19 cells using HQ concentrations varying from 100-1000 μM. Cells were then incubated at 37° C., 5% CO2 for 16 hours. HQ doses of less than 400 μM were non-lethal. Using 500 μM HQ for 16 hours gave a cell viability of ˜60%.
To evaluate the ability of the NAC alkyl-ester analogues to provide cellular protection against oxidative stress, cells were treated with 0.05 mM of NAC, NACME, NACEE, NACPE and NACBE for 2, 24 and 48 hours. Treated cells were then exposed to 500 μM HQ for 16 hours. HQ solutions were removed and replaced with DMEM:F-12 supplemented with 1% FBS, and followed by the addition of XTT (2,3-bis-(2-methoxy-4-nitro-5-sulfophenyl)-2H-tetrazolium-5-carboxanilide) and PMS (phenazine methyl sulfate).
To compare the effectiveness of NACBE and NAC in protecting against oxidative damage, another dose dependent study was carried out by varying the pretreatment concentration from 0.001 mM to 1.0 mM. […] Whereas for NAC, to reach the same cell viability, 0.5 mM concentration was needed (10× times that of NACBE).

The test system of data set [2] is ARPE-19 cells. Kind of data set: HPLC analysis of cellular uptake and conversion to NAC. It is filed as in vitro ADME, human. Particulars: 1 mM for 1 hour in HBSS. As for the experimental part: ARPE-19 cells were seeded onto a 60 cm^2 dish and was allowed to grow to confluency. The cells were treated with 1 mM NAC and NACBE for 1 hour in HBSS. The drug solution was aspirated and washed twice with HBSS. The cells were scraped with the aid of methanol (˜1 mL) and collected into 2 mL centrifuge tubes. The cell suspension in methanol was sonicated (for cell lysis) in a water bath for 30 minutes and was centrifuged at 14,000 RPM for 15 minutes. The supernatant was transferred to a HPLC vial and methanol was evaporated under a stream of nitrogen.
The sample was resuspended in 50 μL of methanol before injecting into the HPLC system. Samples and standard (20 μL) were injected with an autosampler. Separation was conducted by 0.8 mL/min gradient elution with a water/0.10% formic acid and acetonitrile mobile phase on a 250×4.6-mm ([…]) C18 column (Restek, Pinnacle II) maintained at 25° C. The samples were monitored at 205 nm with a UV detector and analyzed with Agilent Chemstation software.

Data set [3] concerns mitochondria isolated from ARPE-19 cells. Kind of data set: Mitochondrial GSH assay. It is filed as cell-based, human. Particulars: 1 mM for 24 hours; compared to NAC and ARPE-19 cells. How it is done:
A GSH assay was carried out for isolated mitochondria to study the mechanism of action of the NAC alkyl-ester analogues in protecting mitochondria. ARPE-19 cells were grown in 6 well plates until 100% confluent in MEM-NIC media. The cells were exposed to 3 mL of 1 mM solutions of NAC and NACBE for 24 hours. The solutions were removed and washed with 3 mL of HBSS before adding 1 mL of 0.25% Trypsin-EDTA and incubating for 10 minutes. 2 mL of DMEM:F-12 supplemented with 10% FBS was added to each well, harvested and centrifuged at 300 rcf for 5 minutes. The supernatant was removed and cell pellet was resuspended in 2 mL of isolation buffer (0.25 M sucrose and 10 mM HEPES).
Cells were disrupted using a probe sonicator (Misonix 5-3000) for 10 seconds in ice. Subsequently, intact cells and debris were removed by centrifuging at 1000 g for 10 mins. Supernatant was collected, and centrifuged at 20,000 g for 25 minutes. Pellet containing mitochondria were saved and washed using 0.5 mL of isolation buffer. After centrifuging at 20,000 g for 25 minutes the mitochondrial pellet was resuspended in 50 μL of HBSS. 25 μL was used to determine total GSH and GSSG and 25 μL was used to determine GSSG levels. GSH assay was then carried out according to manufacturer recommended protocol (Promega GSH/GSSG-Glo™) and luminescence readings were obtained.

Data set [4] deals with ARPE-19 cells. Kind of data set: ZO-1 staining of cellular junctions. The format is cell-based, human. How it is done: ARPE-19 cells were grown on an 8-well slide until confluent. The cells were exposed to 1 mM NAC and NACBE for 24 hours, followed by treatment with 500 μM of HQ for 2 hours. The cells were washed with 3 cycles of PBS, and then fixed with 4% Paraformaldehyde at 4° C. for 30 mins. After fixation the cells were blocked in PBST (0.2% Triton X-100)+1% BSA for 60 mins. Primary antibody (rabbit anti-Zo-1, Invitrogen) was diluted 1/100 in PBST+1% BSA and added overnight at […]. Cells were washed ×3 with PBS and secondary antibody (Donkey anti-Rabbit AF-555, Abcam) was added for 4 hours at RT. Cells were washed ×3 with PBS and mounted with Prolong Diamond Mountant with DAPI (Invitrogen).

With `CCCCOC(=O)[C@H](CS)NC(C)=O` [NACBE, N-acetylcysteine butyl ester], the “change in cell viability upon exposure to HQ” value is recorded as “comparatively a higher cell viability” in the data set with ARPE-19 cells [1] (0.05 mM pretreatment for 24 and 48 hours, compared to NAC and the control); “marginal effect” in the data set on ARPE-19 cells [1] (0.05 mM pretreatment for 2 hours). Besides, the “pretreatment concentration at which 100% cell viability was obtained” value in the data set with ARPE-19 cells [1] (pretreatment 0.001-1.0 mM for 24 hours) was determined as 0.05 mM. In the data set on ARPE-19 cells [2], the “compound and metabolite detected within the cells by HPLC” value was “both NACBE (prodrug) and NAC (metabolite) within the cells; also recorded: taken up by the cells more effectively than NAC”. In data set [3], the “mitochondrial GSH level (luminescence intensity)” value is “increase in the luminescence intensity”. Further, the “ZO-1 staining of cell-cell junctions” value with ARPE-19 cells [4] (1 mM for 24 hours, without HQ) is listed as “proper cell-cell junctions”. In addition, the “ZO-1 staining of cellular junctions after exposure to HQ” value in the data set on ARPE-19 cells [4] (1 mM pretreatment for 24 hours, then 500 μM HQ for 2 hours) is listed as “intact”.

Source of the values: patent publication US20220409526A1 (Retina Foundation Of The Southwest, priority 2019, published 2022).
